Source: PubChem BioAssay AID272 (DTP/NCI, 2004)
Several values for one entry are separate records, joined by “and”; a condition that tells them apart may be missing. Equal values may be shown once. Results filed as inconclusive are left out.

Test system: Lewis lung carcinoma i.m., BDF1 mice, T/C %
Assay: NCI In Vivo Anticancer Drug Screen. Data for tumor model Lewis Lung Carcinoma (intramuscular) in B6D2F1 (BDF1) mice
Experimental: The antitumor activity of compounds was measured in mice bearing transplantable tumors. Survival or tumor size were measured and the results are expressed as the measurement made in the treated group (T) divided by the measurement made in the vehicle treated control group (C). The tumor model used in this assay is Lewis Lung Carcinoma (intramuscular) in B6D2F1 (BDF1) mice

[1] = endpoint: median survival time, dose: 25.0 mg/kg/injection, schedule: Q01DX011 (ip), vehicle: water, higher = longer survival

Nc1ncc(N)c(N)n1
T/C (endpoint: mean tumor weight (est.), dose: 40.0 mg/kg/injection, schedule: Q01DX011 (ip), vehicle: saline, higher = larger tumour): 80 % of control | T/C (endpoint: mean tumor weight (est.), dose: 80.0 mg/kg/injection, schedule: Q01DX011 (ip), vehicle: saline, higher = larger tumour): 88 % of control | T/C (endpoint: mean tumor weight (est.), dose: 160.0 mg/kg/injection, schedule: Q01DX011 (ip), vehicle: saline, higher = larger tumour): 119 % of control | T/C (endpoint: median survival time, dose: 40.0 mg/kg/injection, schedule: Q01DX011 (ip), vehicle: saline, higher = longer survival): 103 % of control | T/C (endpoint: median survival time, dose: 80.0 mg/kg/injection, schedule: Q01DX011 (ip), vehicle: saline, higher = longer survival): 98 % of control | T/C (endpoint: median survival time, dose: 160.0 mg/kg/injection, schedule: Q01DX011 (ip), vehicle: saline, higher = longer survival): 94 % of control

Nc1nncs1
T/C (endpoint: mean tumor weight, dose: 6.25 mg/kg/injection, schedule: Q01DX011 (ip), vehicle: water, higher = larger tumour): 87 % of control | T/C (endpoint: mean tumor weight, dose: 12.5 mg/kg/injection, schedule: Q01DX011 (ip), vehicle: water, higher = larger tumour): 80 % of control | T/C (endpoint: mean tumor weight, dose: 25.0 mg/kg/injection, schedule: Q01DX011 (ip), vehicle: water, higher = larger tumour): 74 % of control | T/C (endpoint: mean tumor weight, dose: 50.0 mg/kg/injection, schedule: Q01DX011 (ip), vehicle: water, higher = larger tumour): 36 % of control | T/C (endpoint: median survival time, dose: 6.25 mg/kg/injection, schedule: Q01DX011 (ip), vehicle: water, higher = longer survival): 121 % of control | T/C [1]: 123 % of control

CC1OC(O[C@@H]2C=C3CC[C@@H]4[C@H](CC[C@]5(C)[C@@H](c6ccc(=O)oc6)CC[C@]45O)[C@@]3(C)CC2)C(O)C(O)C1O (some centres undefined)
T/C (endpoint: mean tumor weight, dose: 0.31 mg/kg/injection, schedule: Q01DX011 (ip), vehicle: steriod suspending solution, higher = larger tumour): 92 % of control | T/C (endpoint: mean tumor weight, dose: 0.62 mg/kg/injection, schedule: Q01DX011 (ip), vehicle: steriod suspending solution, higher = larger tumour): 114 % of control | T/C (endpoint: mean tumor weight, dose: 1.25 mg/kg/injection, schedule: Q01DX011 (ip), vehicle: steriod suspending solution, higher = larger tumour): 36 % of control | T/C (endpoint: mean tumor weight, dose: 2.5 mg/kg/injection, schedule: Q01DX011 (ip), vehicle: steriod suspending solution, higher = larger tumour): 50 % of control | T/C (endpoint: median survival time, dose: 0.31 mg/kg/injection, schedule: Q01DX011 (ip), vehicle: steriod suspending solution, higher = longer survival): 122 % of control | T/C (endpoint: median survival time, dose: 1.25 mg/kg/injection, schedule: Q01DX011 (ip), vehicle: steriod suspending solution, higher = longer survival): 113 % of control | T/C (endpoint: median survival time, dose: 2.5 mg/kg/injection, schedule: Q01DX011 (ip), vehicle: steriod suspending solution, higher = longer survival): 119 % of control

Cc1ccc2c(C)c3c(ccc4ccccc43)c[n+]2c1
T/C (endpoint: mean tumor weight (est.), dose: 1.25 mg/kg/injection, schedule: Q01DX011 (ip), vehicle: saline, higher = larger tumour): 87 % of control | T/C (endpoint: mean tumor weight (est.), dose: 2.5 mg/kg/injection, schedule: Q01DX011 (ip), vehicle: saline, higher = larger tumour): 96 % of control | T/C (endpoint: mean tumor weight (est.), dose: 5.0 mg/kg/injection, schedule: Q01DX011 (ip), vehicle: saline, higher = larger tumour): 72 % of control | T/C (endpoint: median survival time, dose: 1.25 mg/kg/injection, schedule: Q01DX011 (ip), vehicle: saline, higher = longer survival): 106 % of control | T/C (endpoint: median survival time, dose: 2.5 mg/kg/injection, schedule: Q01DX011 (ip), vehicle: saline, higher = longer survival): 110 % of control | T/C (endpoint: median survival time, dose: 5.0 mg/kg/injection, schedule: Q01DX011 (ip), vehicle: saline, higher = longer survival): 100 % of control

C[C@]12C=CC(=O)C=C1CC[C@@H]1[C@@H]2C(=O)C[C@@]2(C)[C@H]1CC[C@]2(O)C(=O)CO
T/C (endpoint: mean tumor weight, dose: 23.0 mg/kg/injection, schedule: Q01DX009 (ip), vehicle: water, higher = larger tumour): 70 % of control | T/C (endpoint: mean tumor weight, dose: 25.0 mg/kg/injection, schedule: Q01DX011 (ip), vehicle: saline, higher = larger tumour): 45 % of control | T/C (endpoint: mean tumor weight, dose: 39.0 mg/kg/injection, schedule: Q01DX009 (ip), vehicle: water, higher = larger tumour): 50 % of control | T/C (endpoint: mean tumor weight, dose: 50.0 mg/kg/injection, schedule: Q01DX011 (ip), vehicle: saline, higher = larger tumour): 36 % of control | T/C (endpoint: mean tumor weight, dose: 100.0 mg/kg/injection, schedule: Q01DX011 (ip), vehicle: saline, higher = larger tumour): 17 % of control | T/C (endpoint: mean tumor weight, dose: 200.0 mg/kg/injection, schedule: Q01DX011 (ip), vehicle: saline, higher = larger tumour): 5 % of control | T/C (endpoint: median survival time, dose: 23.0 mg/kg/injection, schedule: Q01DX009 (ip), vehicle: none, higher = longer survival): 109 % of control | T/C (endpoint: median survival time, dose: 23.0 mg/kg/injection, schedule: Q01DX009 (ip), vehicle: water, higher = longer survival): 106 % of control | T/C (endpoint: median survival time, dose: 25.0 mg/kg/injection, schedule: Q01DX011 (ip), vehicle: carboxymethylcellulose (CMC), higher = longer survival): 106 % of control and 113 % of control | T/C (endpoint: median survival time, dose: 25.0 mg/kg/injection, schedule: Q01DX011 (ip), vehicle: saline, higher = longer survival): 112 % of control | T/C [1]: 110 % of control | T/C (endpoint: median survival time, dose: 39.0 mg/kg/injection, schedule: Q01DX009 (ip), vehicle: none, higher = longer survival): 104 % of control | T/C (endpoint: median survival time, dose: 39.0 mg/kg/injection, schedule: Q01DX009 (ip), vehicle: water, higher = longer survival): 90 % of control | T/C (endpoint: median survival time, dose: 50.0 mg/kg/injection, schedule: Q01DX011 (ip), vehicle: carboxymethylcellulose (CMC), higher = longer survival): 115 % of control and 121 % of control | T/C (endpoint: median survival time, dose: 50.0 mg/kg/injection, schedule: Q01DX011 (ip), vehicle: saline, higher = longer survival): 104 % of control | T/C (endpoint: median survival time, dose: 50.0 mg/kg/injection, schedule: Q01DX011 (ip), vehicle: water, higher = longer survival): 108 % of control | T/C (endpoint: median survival time, dose: 52.0 mg/kg/injection, schedule: Q01DX007 (sc), vehicle: saline, higher = longer survival): 118 % of control and 119 % of control | T/C (endpoint: median survival time, dose: 65.0 mg/kg/injection, schedule: Q01DX009 (ip), vehicle: none, higher = longer survival): 95 % of control | T/C (endpoint: median survival time, dose: 86.0 mg/kg/injection, schedule: Q01DX007 (sc), vehicle: saline, higher = longer survival): 95 % of control and 113 % of control | T/C (endpoint: median survival time, dose: 100.0 mg/kg/injection, schedule: Q01DX011 (ip), vehicle: saline, higher = longer survival): 102 % of control | T/C (endpoint: median survival time, dose: 100.0 mg/kg/injection, schedule: Q01DX011 (ip), vehicle: water, higher = longer survival): 94 % of control | T/C (endpoint: median survival time, dose: 108.0 mg/kg/injection, schedule: Q01DX009 (ip), vehicle: none, higher = longer survival): 46 % of control | T/C (endpoint: median survival time, dose: 144.0 mg/kg/injection, schedule: Q01DX007 (sc), vehicle: saline, higher = longer survival): 105 % of control | T/C (endpoint: median survival time, dose: 180.0 mg/kg/injection, schedule: Q01DX009 (ip), vehicle: none, higher = longer survival): 42 % of control | T/C (endpoint: median survival time, dose: 240.0 mg/kg/injection, schedule: Q01DX007 (sc), vehicle: saline, higher = longer survival): 68 % of control

COCC(O)Cn1ccnc1[N+](=O)[O-] (centres undefined)
T/C (endpoint: median survival time, dose: 600.0 mg/kg/injection, schedule: Q01DX001 (ip), vehicle: saline, higher = longer survival): 90 % of control and 92 % of control and 96 % of control | T/C (endpoint: median survival time, dose: 1000.0 mg/kg/injection, schedule: Q01DX001 (ip), vehicle: saline, higher = longer survival): 92 % of control and 104 % of control and 106 % of control

CN(C)/N=N/c1nc[nH]c1C(N)=O
T/C (endpoint: mean tumor weight, dose: 50.0 mg/kg/injection, schedule: Q01DX011 (ip), vehicle: steriod suspending solution, higher = larger tumour): 63 % of control | T/C (endpoint: mean tumor weight, dose: 100.0 mg/kg/injection, schedule: Q01DX011 (ip), vehicle: steriod suspending solution, higher = larger tumour): 62 % of control | T/C (endpoint: mean tumor weight, dose: 200.0 mg/kg/injection, schedule: Q01DX011 (ip), vehicle: steriod suspending solution, higher = larger tumour): 44 % of control | T/C (endpoint: median survival time, dose: 23.0 mg/kg/injection, schedule: Q01DX011 (ip), vehicle: Klucel (hydroxypropylcellulose) (HPC), higher = longer survival): 112 % of control and 115 % of control | T/C (endpoint: median survival time, dose: 25.0 mg/kg/injection, schedule: Q01DX009 (ip), vehicle: Klucel (hydroxypropylcellulose) (HPC), higher = longer survival): 101 % of control | T/C (endpoint: median survival time, dose: 39.0 mg/kg/injection, schedule: Q01DX010 (ip), vehicle: Klucel (hydroxypropylcellulose) (HPC), higher = longer survival): 102 % of control and 104 % of control | T/C (endpoint: median survival time, dose: 39.0 mg/kg/injection, schedule: Q01DX011 (ip), vehicle: Klucel (hydroxypropylcellulose) (HPC), higher = longer survival): 108 % of control and 116 % of control | T/C (endpoint: median survival time, dose: 50.0 mg/kg/injection, schedule: Q01DX009 (ip), vehicle: Klucel (hydroxypropylcellulose) (HPC), higher = longer survival): 120 % of control | T/C (endpoint: median survival time, dose: 50.0 mg/kg/injection, schedule: Q01DX011 (ip), vehicle: steriod suspending solution, higher = longer survival): 105 % of control | T/C (endpoint: median survival time, dose: 65.0 mg/kg/injection, schedule: Q01DX010 (ip), vehicle: Klucel (hydroxypropylcellulose) (HPC), higher = longer survival): 112 % of control and 117 % of control | T/C (endpoint: median survival time, dose: 65.0 mg/kg/injection, schedule: Q01DX011 (ip), vehicle: Klucel (hydroxypropylcellulose) (HPC), higher = longer survival): 88 % of control and 93 % of control | T/C (endpoint: median survival time, dose: 100.0 mg/kg/injection, schedule: Q01DX009 (ip), vehicle: Klucel (hydroxypropylcellulose) (HPC), higher = longer survival): 123 % of control | T/C (endpoint: median survival time, dose: 100.0 mg/kg/injection, schedule: Q01DX011 (ip), vehicle: steriod suspending solution, higher = longer survival): 97 % of control | T/C (endpoint: median survival time, dose: 108.0 mg/kg/injection, schedule: Q01DX010 (ip), vehicle: Klucel (hydroxypropylcellulose) (HPC), higher = longer survival): 88 % of control and 93 % of control | T/C (endpoint: median survival time, dose: 108.0 mg/kg/injection, schedule: Q01DX011 (ip), vehicle: Klucel (hydroxypropylcellulose) (HPC), higher = longer survival): 75 % of control | T/C (endpoint: median survival time, dose: 180.0 mg/kg/injection, schedule: Q01DX010 (ip), vehicle: Klucel (hydroxypropylcellulose) (HPC), higher = longer survival): 79 % of control | T/C (endpoint: median survival time, dose: 180.0 mg/kg/injection, schedule: Q01DX011 (ip), vehicle: Klucel (hydroxypropylcellulose) (HPC), higher = longer survival): 63 % of control | T/C (endpoint: median survival time, dose: 200.0 mg/kg/injection, schedule: Q01DX011 (ip), vehicle: steriod suspending solution, higher = longer survival): 97 % of control | T/C (endpoint: median survival time, dose: 300.0 mg/kg/injection, schedule: Q01DX010 (ip), vehicle: Klucel (hydroxypropylcellulose) (HPC), higher = longer survival): 58 % of control | T/C (endpoint: median survival time, dose: 300.0 mg/kg/injection, schedule: Q01DX011 (ip), vehicle: Klucel (hydroxypropylcellulose) (HPC), higher = longer survival): 55 % of control | T/C (endpoint: median survival time, dose: 500.0 mg/kg/injection, schedule: Q01DX010 (ip), vehicle: Klucel (hydroxypropylcellulose) (HPC), higher = longer survival): 57 % of control | T/C (endpoint: median survival time, dose: 500.0 mg/kg/injection, schedule: Q01DX011 (ip), vehicle: Klucel (hydroxypropylcellulose) (HPC), higher = longer survival): 51 % of control
